# Source: US5567692A, “9-[(substituted glycyl) amido)]-6-demethyl-6-deoxytetracyclines” (priority 1995, dated 1996)
# Where two headings read alike, the source gives them in different places.
# Tests used:
# E. coli J3272 Tet sens = experiment: MIC, agar dilution; format: cell-based; settings: Escherichia coli, J3272TETSENS, 18 h
# E. coli J3272 Tet C = experiment: microbe, parasite or virus in culture; format: cell-based; settings: Escherichia coli, J3272TETC, 18 h
# E. coli UBMS 90-5 = experiment: microbe, parasite or virus in culture; format: cell-based; settings: Escherichia coli, UBMS905, 18 h, E. coli UBMS 90-5; read-out: MIC
# S. marcescens FPOR 8733 = experiment: MIC, agar dilution; format: cell-based; settings: Serratia marcescens, FPOR8733, 18 h
# [1] = test system: Ps. aeruginosa ATCC 27853; experiment: MIC, agar dilution; format: cell-based; settings: Pseudomonas aeruginosa, ATCC27853, 18 h
# Enterococcus 12201 = experiment: MIC, agar dilution; format: cell-based; settings: Enterococcus, 12201, 18 h, Enterococcus 12201; read-out: MIC
# E. faecalis ATCC 29212 = experiment: MIC, agar dilution; format: cell-based; settings: Enterococcus faecalis, ATCC29212, 18 h
# [2] = test system: Staphylococcus aureus strain Smith (tetracycline sensitive); experiment: Acute lethal infection in mice, S. aureus Smith; format: in vivo; settings: Staphylococcus aureus, 168 h, mice, S. aureus Smith (Sens), 7 day survival, read-out: ED50
# [3] = test system: Staphylococcus aureus, (methicillin-susceptible); experiment: MIC range, recent clinical and veterinary isolates; format: cell-based; settings: 18 h; Staphylococcus aureus (methicillin-susceptible), [15] isolates; read-out: MIC Range
# [4] = test system: Staphylococcus Coagulase-negative, (methicillin-resistant); experiment: MIC range, recent clinical and veterinary isolates; format: cell-based; settings: 18 h, [16] isolates
# [5] = test system: Staphylococcus Coagulase-negative, (methicillin-susceptible); experiment: MIC range, recent clinical and veterinary isolates; format: cell-based; settings: 18 h, [14] isolates
# Enterococcus faecalis = experiment: MIC range, recent clinical and veterinary isolates; format: cell-based; settings: 18 h, [10] isolates, read-out: MIC Range
# Enterococcus faecium = experiment: MIC range, recent clinical and veterinary isolates; format: cell-based; settings: 18 h, [10] isolates, read-out: MIC Range
# [6] = test system: Enterococcus spp, (Vancomycin-resistant); experiment: MIC range, recent clinical and veterinary isolates; format: cell-based; settings: 18 h, [8] isolates
# Streptococcus pyogenes = experiment: MIC range, recent clinical and veterinary isolates; format: cell-based; settings: 18 h, [10] isolates, read-out: MIC Range
# Streptococcus agalactiae = experiment: MIC range, recent clinical and veterinary isolates; format: cell-based; settings: 18 h, [10] isolates, read-out: MIC Range
# Streptococcus pneumoniae = experiment: MIC range, recent clinical and veterinary isolates; format: cell-based; settings: 18 h, [10] isolates, read-out: MIC Range
# Listeria monocytogenes = experiment: MIC range, recent clinical and veterinary isolates; format: cell-based; settings: 18 h, [8] isolates
# Escherichia coli = experiment: MIC range, recent clinical and veterinary isolates; format: cell-based; settings: 18 h, [30] isolates, read-out: MIC Range
# [7] = test system: Escherichia coli (Veterinary); experiment: MIC range, recent clinical and veterinary isolates; format: cell-based; settings: 18 h, [15] isolates
# Shigella spp. = experiment: MIC range, recent clinical and veterinary isolates; format: cell-based; settings: 18 h, [14] isolates
# Klebsiella pneumoniae = experiment: MIC range, recent clinical and veterinary isolates; format: cell-based; settings: 18 h, [10] isolates
# Klebsiella oxytoca = experiment: MIC range, recent clinical and veterinary isolates; format: cell-based; settings: 18 h, [10] isolates, read-out: MIC Range
# Citrobacter freundii = experiment: MIC range, recent clinical and veterinary isolates; format: cell-based; settings: [10] isolates
# Citrobacter diversus = experiment: MIC range, recent clinical and veterinary isolates; format: cell-based; settings: Citrobacter koseri, 18 h; Citrobacter diversus, [10] isolates; read-out: MIC Range
# Salmonella spp. = experiment: MIC range, recent clinical and veterinary isolates; format: cell-based; settings: 18 h, [11] isolates
# Serratia marcescens = experiment: MIC range, recent clinical and veterinary isolates; format: cell-based; settings: 18 h, read-out: MIC Range
# Enterobacter cloacae = experiment: MIC range, recent clinical and veterinary isolates; format: cell-based; settings: 18 h, [10] isolates, read-out: MIC Range
# Enterobacter aerogenes = experiment: MIC range, recent clinical and veterinary isolates; format: cell-based; settings: Klebsiella aerogenes, 18 h; Enterobacter aerogenes, [10] isolates; read-out: MIC Range
# Proteus mirabilis = experiment: MIC range, recent clinical and veterinary isolates; format: cell-based; settings: 18 h, [26] isolates, read-out: MIC Range
# Proteus vulgaris = experiment: MIC range, recent clinical and veterinary isolates; format: cell-based; settings: 18 h, read-out: MIC Range
# Morganella morganii = experiment: MIC range, recent clinical and veterinary isolates; format: cell-based; settings: 18 h, [16] isolates
# Pseudomonas aeruginosa = experiment: MIC range, recent clinical and veterinary isolates; format: cell-based; settings: 18 h, [10] isolates, read-out: MIC Range
# Xanthamonas maltophilia = experiment: MIC range, recent clinical and veterinary isolates; format: cell-based; settings: 18 h; Xanthamonas maltophilia, [10] isolates; read-out: MIC Range
# Moraxella catarrhalis = experiment: MIC range, recent clinical and veterinary isolates; format: cell-based; settings: 18 h, [18] isolates, read-out: MIC Range
# Neisseria gonorrhoeae = experiment: MIC range, recent clinical and veterinary isolates; format: cell-based; settings: 18 h, [14] isolates
# Haemophilus influenzae = experiment: MIC range, recent clinical and veterinary isolates; format: cell-based; settings: 18 h, [15] isolates
# [8] = test system: Pasturella multocida (Veterinary); experiment: MIC range, recent clinical and veterinary isolates; format: cell-based; settings: 18 h, [17] isolates
# [9] = test system: Bordetella bronchiseptica (Veterinary); experiment: MIC range, recent clinical and veterinary isolates; format: cell-based; settings: 18 h; Bordetella bronchiseptica (Veterinary), [10] isolates; read-out: MIC Range
# Bacteroides fragilis = experiment: MIC range, recent clinical and veterinary isolates; format: cell-based; settings: [11] isolates
# [10] = test system: Bacteroides fragilis group; experiment: MIC range, recent clinical and veterinary isolates; format: cell-based; settings: 18 h; Bacteroides fragilis group, [10] isolates; read-out: MIC Range
# Bacteroides spp. = experiment: MIC range, recent clinical and veterinary isolates; format: cell-based; settings: 18 h; Bacteroides spp., [9] isolates; read-out: MIC Range
# Clostridium difficile = experiment: MIC range, recent clinical and veterinary isolates; format: cell-based; settings: Clostridium difficile, [12] isolates
# Anaerobic Gram(+)Cocci = experiment: MIC range, recent clinical and veterinary isolates; format: cell-based; settings: 18 h, read-out: MIC Range
# [11] = test system: Escherichia coli UBMS 90-4 (Tet M); experiment: Acute lethal infection in mice, E. coli UBMS 90-4; settings: in Mus musculus, iv, 168 h
compound,measurement,setting,value
"CN(C)c1ccc(O)c2c1C[C@H]1C[C@H]3[C@H](N(C)C)C(O)=C(C(N)=O)C(=O)[C@@]3(O)C(O)=C1C2=O [U, Minocycline, reference compound]",MIC,E. coli J3272 Tet sens,1 µg/mL
same,MIC,E. coli J3272 Tet C,1 µg/mL
same,MIC,E. coli UBMS 90-5,1 µg/mL
same,MIC,S. marcescens FPOR 8733,4 µg/mL
same,MIC,[1],8 µg/mL
same,MIC,Enterococcus 12201,8 µg/mL
same,MIC,E. faecalis ATCC 29212,2 µg/mL
same,ED50,"[2]; iv, Intraveneous",0.37 mg/kg
same,ED50,"[2]; po, Oral",0.74 mg/kg
same,MIC,[3],0.03 to 0.12 µg/mL
same,MIC,[4],0.03 to 1 µg/mL
same,MIC,[5],0.015 to 0.25 µg/mL
same,MIC,Enterococcus faecalis,0.03 to 16 µg/mL
same,MIC,Enterococcus faecium,0.03 to 16 µg/mL
same,MIC,[6],0.03 to 16 µg/mL
same,MIC,Streptococcus pyogenes,0.03 to 2 µg/mL
same,MIC,Streptococcus agalactiae,0.12 to 16 µg/mL
same,MIC,Streptococcus pneumoniae,0.06 to 0.5 µg/mL
same,MIC,Listeria monocytogenes,0.015 to 0.03 µg/mL
same,MIC,Escherichia coli,0.25 to 32 µg/mL
same,MIC,[7],1 to 16 µg/mL
same,MIC,Shigella spp.,0.25 to 8 µg/mL
same,MIC,Klebsiella pneumoniae,0.5 to 8 µg/mL
same,MIC,Klebsiella oxytoca,0.5 to 4 µg/mL
same,MIC Range,Citrobacter freundii,0.03 to 32 µg/mL
same,MIC,Citrobacter diversus,0.25 to 4 µg/mL
same,MIC,Salmonella spp.,0.5 to 16 µg/mL
same,MIC,Serratia marcescens,1 to 8 µg/mL
same,MIC,Enterobacter cloacae,0.25 to 4 µg/mL
same,MIC,Enterobacter aerogenes,0.5 to 1 µg/mL
same,MIC,Proteus mirabilis,1 to 32 µg/mL
same,MIC,Proteus vulgaris,0.5 to 16 µg/mL
same,MIC,Morganella morganii,0.25 to 32 µg/mL
same,MIC,Pseudomonas aeruginosa,1 to 16 µg/mL
same,MIC,Xanthamonas maltophilia,0.12 to 1 µg/mL
same,MIC,Moraxella catarrhalis,0.03 to 0.12 µg/mL
same,MIC,Neisseria gonorrhoeae,0.5 to 64 µg/mL
same,MIC,Haemophilus influenzae,0.5 to 2 µg/mL
same,MIC,[8],0.015 to 4 µg/mL
same,MIC,[9],0.06 to 0.12 µg/mL
same,MIC Range,Bacteroides fragilis,<0.008 to 16 µg/mL
same,MIC,[10],0.008 to 4 µg/mL
same,MIC,Bacteroides spp.,0.03 to 16 µg/mL
same,MIC Range,Clostridium difficile,0.015 to 16 µg/mL
same,MIC,Anaerobic Gram(+)Cocci,0.05 to 8 µg/mL
same,ED50,[11],> 32 mg/kg
